Laboratory results published in patent publication US4196217A, “Hydroxylated amines with bacteriostatic activity” (priority 1978, dated 1980).
Values joined by “and” are separate entries in the source; they are usually repeats but may differ in a detail not shown here. Equal entries are not always repeated. Where two headings read alike, the source gives them in different places.

Columns and labels:
[1] = acute toxicity, intragastric, mice; conditions: mouse, in vivo, po, both after 48 hours and after 14 days
Protocol: (§1) The LD50 was calculated by the graphic method of J. T. Lichtfield and F. Wilcoxon (J. Pharm. Exp. Ther. 1949, 96: 99-[…]).

Pseudomonas aeruginosa = assay: bacteriostatic activity (MIC), Pseudomonas aeruginosa; format: cell-based; conditions: for MIC: Pseudomonas aeruginosa, 48 h
Protocol: (§2) The medium containing the solution to be tested is inoculated in the form of three single striae with a 10^-5 times dilution of a bacterial culture aged 16 to 18 hours grown in salted peptone broth at a temperature of 37° C.
(§3) After inoculation, the media are stored at 37° C. for 48 hours, after which the bacterial growth is inspected. The MIC (minimum inhibiting concentrations) are expressed in micrograms of pure product per cubic centimeter of gelose medium required for inhibiting the culture (μg/cc). The control substance used is benzalconium chloride.
(§4) Tests were also carried out to determine the bacteriostatic activity of other compounds according to the invention by the method described above and in comparison with known substances, in particular with benzalconium chloride (compound T in the Tables).

Bacillus pyocyaneus [2] = assay: MIC study in a solid medium on 35 strains of Bacillus pyocyaneus; format: cell-based; conditions: Pseudomonas aeruginosa, majority of 35 strains, read-out: minimum inhibiting concentration
Pneumobacille = assay: bacteriostatic activity (MIC), Pneumobacille; format: cell-based; conditions: 48 h, Table I, 37° C., read-out: MIC
Protocol: (§5) The medium containing the solution to be tested is inoculated in the form of three single striae with a 10^-5 times dilution of a bacterial culture aged 16 to 18 hours grown in salted peptone broth at a temperature of 37° C. After inoculation, the media are stored at 37° C. for 48 hours, after which the bacterial growth is inspected. The MIC (minimum inhibiting concentrations) are expressed in micrograms of pure product per cubic centimeter of gelose medium required for inhibiting the culture (μg/cc). The control substance used is benzalconium chloride.

Bacillus subtilis [3] = assay: bacteriostatic activity (MIC), Bacillus subtilis; format: cell-based; conditions: for MIC: Bacillus subtilis, 48 h
Protocol: as §2, §3, §4

Bacillus pyocyaneus [4] = assay: in vitro MIC on 100 strains of Bacillus pyocyaneus; format: cell-based; conditions: Pseudomonas aeruginosa, read-out: minimum inhibiting concentration
Protocol: In vitro tests on the activity of the compound of Example 1 were also carried out so as to determine the activity of that compound on Bacillus pyocyaneus. The results of determining the minimum inhibiting concentration on 100 different strains are as follows: […]

Bacillus subtilis [5] = assay: bactericidal activity, Bacillus subtilis; format: cell-based; conditions: Table II, 2 hours contact, laboratory temperature, read-out: MIC (bactericidal activity)
Protocol: (§6) Bactericidal activity is determined by the following methods: A titrate suspension of bacteria is brought into contact over a period of 2 hours at the temperature of the laboratory with increasing dilutions of the test product. The number of bacteria still alive are counted after passage through a filtering membrane.

spores = assay: sporocidal activity; format: cell-based; conditions: especially above 35° C. and at a pH around 7
M pyogenes aureus = assay: bactericidal activity, M pyogenes aureus; format: cell-based; conditions: Table II, 2 hours contact, laboratory temperature; read-out: MIC (bactericidal activity)
Protocol: as §6

[6] = acute toxicity, intragastric, rats; conditions: rat, in vivo, po, both after 48 hours and after 14 days
Protocol: as §1

Staphyloccus aureus = assay: bacteriostatic activity (MIC), Staphylococcus aureus; format: cell-based; conditions: Staphylococcus aureus, 48 h
Protocol: as §2, §3, §4

Escherichia coli [7] = assay: bactericidal activity, Escherichia coli; format: cell-based; conditions: Table II, 2 hours contact, laboratory temperature, read-out: MIC (bactericidal activity)
Protocol: as §6

Enterbacter cloacae = assay: bacteriostatic activity (MIC), Enterbacter cloacae; format: cell-based; conditions: 48 h, Table I, 37° C., read-out: MIC
Protocol: as §5

Bacillus pyocyaneus [8] = assay: bactericidal concentration on 6 different strains; format: cell-based
Ps. aeruginosa = assay: in vivo effect on infection of excised wounds in rats; design: species or system rats infected with Ps. aeruginosa
Protocol: The activity of the compound of Example 1 was also tested in vivo, in particular the compound was tested for its effect on Bacillus pyocyaneus in the following manner:
Rats are intravenously injected with 1 ml of a 10^8 solution of Ps. aeruginosa. A 20 cm^2 cutaneous excision was then made in the animals.
30 minutes after the injection, the bacteria injected were detected in the vicinity of the wound by the replica method on a solid nutritive medium.
One group of rats was sprayed with the compound of Example 1 (aqueous solution) in the vicinity of the wounds (1 to 3 times daily).
A group of control rats were sprayed with sterile distilled water.

[9] = system: spores of B.subtilis var. Niger; assay: sporostatic activity (a), Petri dish dilution; format: cell-based; conditions: for number of colonies (average of 2 tests): approximately 200 spores
Protocol: (a) 1 cc of a suspension of spores of B.subtilis var. Niger containing approximately 200 spores is placed in one Petri dish, whilst 1 cc of a solution containing 3 g/100 cc of the product (mother solution) or of the same mother solution diluted to 1/10th, 1/100th, etc. up to 1/100,000th, are placed in other Petri dishes. Following the addition of a culture medium, the dishes are agitated, cooled and then placed in an oven. The number of colonies obtained are then determined.

in vivo = conditions: mouse, mice, intravenous, both after 3 minutes and after 14 days
Text: Acute toxicity was again determined in male mice by intravenous administration.

Escherichia coli [10] = assay: bacteriostatic activity (MIC), Escherichia coli; format: cell-based; conditions: for MIC: Escherichia coli, 48 h; for M.I.C.: hydrochloride
Protocol: as §2, §3, §4

[11] = Table I, with 20% of serum, 37° C., 48 hours, read-out: MIC
[12] = Table I, without serum, 37° C., 48 hours, read-out: MIC
[13] = Table VI, bacteriostase containing 20% of serum, read-out: M.I.C.
[14] = Table VI, bacteriostase containing 20% of serum, hydrochloride
[15] = Table VI, bacteriostase without serum, read-out: M.I.C.
[16] = aqueous solution sprayed near wounds, 1 to 3 times daily

Question: Which LD50 [1] does the source give for `CCCCCCCCCCOCC(O)CN.Cl` (stereo not drawn) [Compound 1, 3-decyloxy-2-hydroxy-1-aminopropane hydrochloride] here?
Answer: 1300 mg/kg

Question: What about the MIC (Pseudomonas aeruginosa; [11]) of the same compound?
Answer: 150 µg/mL

Question: What about the MIC (Pseudomonas aeruginosa; [12]) of the same compound?
Answer: 40 µg/mL

Question: What about the MIC (Pseudomonas aeruginosa; [13]) of the same compound?
Answer: 250 µg/mL

Question: And the M.I.C. (Pseudomonas aeruginosa; [14])?
Answer: 200 μg/cc and 400 μg/cc and 350 μg/cc

Question: And the MIC (Bacillus pyocyaneus [2])?
Answer: 62.5 µg/mL

Question: What about the MIC (Pneumobacille; with 20% of serum) of the same compound?
Answer: 75 µg/mL

Question: And the MIC (Pneumobacille; without serum)?
Answer: 35 µg/mL

Question: And the MIC (Bacillus subtilis [3]; [11])?
Answer: 50 µg/mL

Question: And the MIC (Bacillus subtilis [3]; [12])?
Answer: 30 µg/mL

Question: What about the MIC (Bacillus subtilis [3]; [13]) of the same compound?
Answer: 60 µg/mL

Question: What about the MIC (Bacillus subtilis [3]; [15]) of the same compound?
Answer: 15 µg/mL

Question: And the M.I.C. (Bacillus subtilis [3]; [14])?
Answer: 50 μg/cc and 40 μg/cc

Question: And the MIC (Bacillus pyocyaneus [4]; 10 of 100 strains)?
Answer: 100 µg/mL

Question: What about the MIC (Bacillus pyocyaneus [4]; 20 of 100 strains) of the same compound?
Answer: 25 µg/mL

Question: And the MIC (Bacillus pyocyaneus [4]; 70 of 100 strains)?
Answer: 50 µg/mL

Question: And the MBC (Bacillus subtilis [5])?
Answer: 50 µg/mL

Question: And the sporocidal activity (spores)?
Answer: positive

Question: And the MBC (M pyogenes aureus)?
Answer: 100 µg/mL

Question: What about the LD50 [6] of the same compound?
Answer: 1300 mg/kg

Question: And the MIC (Staphyloccus aureus; [11])?
Answer: 120 µg/mL

Question: What about the MIC (Staphyloccus aureus; [12]) of the same compound?
Answer: 60 µg/mL

Question: What about the MIC (Staphyloccus aureus; [13]) of the same compound?
Answer: 75 µg/mL

Question: What about the MBC (Escherichia coli [7]) of the same compound?
Answer: 50 µg/mL

Question: And the MIC (Enterbacter cloacae; with 20% of serum)?
Answer: 80 µg/mL

Question: What about the MIC (Enterbacter cloacae; without serum) of the same compound?
Answer: 30 µg/mL

Question: What about the bactericidal concentration (Bacillus pyocyaneus [8]) of the same compound?
Answer: very similar to the MIC

Question: And the “number of colonies in positive cultures in relation to control rats” value (Ps. aeruginosa; [16])?
Answer: only a very small number of colonies

Question: What about the “replica cultures totally negative” value (Ps. aeruginosa; [16]) of the same compound?
Answer: 75%

Question: And the local tolerance (Ps. aeruginosa; rat, in vivo)?
Answer: good

Question: And the healing process (Ps. aeruginosa; sprayed near wounds, 1 to 3 times daily)?
Answer: normal

Question: What about the “number of colonies (average of 2 tests)” value ([9]; 0 dilutions to 1/10 (mother solution 3 g/100 cc)) of the same compound?
Answer: 0

Question: And the “number of colonies (average of 2 tests)” value ([9]; 1 dilution to 1/10 of mother solution 3 g/100 cc)?
Answer: 0

Question: And the “number of colonies (average of 2 tests)” value ([9]; 2 dilutions to 1/10 of mother solution 3 g/100 cc)?
Answer: 18

Question: What about the “number of colonies (average of 2 tests)” value ([9]; 3 dilutions to 1/10 of mother solution 3 g/100 cc) of the same compound?
Answer: > 200

Question: And the “number of colonies (average of 2 tests)” value ([9]; 4 dilutions to 1/10 of mother solution 3 g/100 cc)?
Answer: > 200

Question: And the “number of colonies (average of 2 tests)” value ([9]; 5 dilutions to 1/10 of mother solution 3 g/100 cc)?
Answer: > 200

Question: And the MIC ([9]; Bacillus subtilis, taking into account the dilution by the gelose culture medium, from Table III, read-out: concentration still showing sporostatic activity)?
Answer: 20 µg/mL

Question: What about the LD50 (in vivo) of the same compound?
Answer: 54.5 mg/kg

Question: And the MIC (Escherichia coli [10]; [11])?
Answer: 75 µg/mL

Question: And the MIC (Escherichia coli [10]; [12])?
Answer: 20 µg/mL

Question: What about the MIC (Escherichia coli [10]; [13]) of the same compound?
Answer: 60 µg/mL

Question: And the MIC (Escherichia coli [10]; [15])?
Answer: 20 µg/mL

Question: What about the M.I.C. (Escherichia coli [10]; Table VI, bacteriostase containing 20% of serum) of the same compound?
Answer: 80 μg/cc and 75 μg/cc and 100 μg/cc

Question: What about the M.I.C. (Escherichia coli [10]; Table VI, bacteriostase without serum) of the same compound?
Answer: 25 μg/cc and 40 μg/cc
